Columns and labels:
[1] = molecular target: T1, CDK7/Cyclin H/MAT-1 complex (Homo sapiens, UniProt P50613); assay: Absorbance kinetic assay (20 nM CDK7/Cyclin H/MAT-1 complex); type: biochemical; conditions: for IC50: read-out: CDK7 (20 nM) pIC50 (converted)
T1 construct: Human CDK7 (amino acids 1-346); His6 (N); TEV protease cleavage site (N); made in house; host or cells: baculovirus-SF9 insect cells
Protocol: Human CDK7 (amino acids 1-346) containing an N-terminal His6-tag followed by a tobacco etch virus (TEV) protease cleavage site, human MAT1 (amino acids 1-309) and human cyclin H (amino acids 1-323) were co-expressed in the baculovirus-SF9 insect cell expression system to generate a trimeric complex. Cell pellets were collected 72 h post-infection and were resuspended by Dounce homogenization in 20 mM Hepes-NaOH (pH 8.0), 300 mM NaCl, 10% glycerol, 2 mM dithiothreitol DTT), and 20 mM Imidazole supplemented with cOmplete™ Protease Inhibitor Cocktail (Roche) and 25 U/mL Benzonase® Nuclease HC according to the manufacturer's instructions. Cells were lysed by passing through a Microfluidics M110Y Microfluidizer 3 times at 600 kPa followed by centrifugation at 38,000×g at 4° C. for 1 hour. The supernatant was loaded onto a pre-equilibrated HisTrap HP column and eluted in 20 mM Hepes-NaOH (pH 8.0), 50 mM NaCl, 10% glycerol, 2 mM DTT, and 400 mM Imidazole. The eluate was further purified by gel filtration on a Superdex S200 16/60 column and eluted with 20 mM Hepes-NaOH (pH 7.5), 50 mM NaCl, 10% Glycerol, 2 mM DTT. Fractions containing a trimeric complex of CDK7, cyclin H, and MAT1 in a 1:1:1 ratio were pooled and concentrated to 3 mg/mL in a 10 kDa MWCO concentrator, and diluted to a final concentration of 1.6 mg/mL in 11.1 mM Hepes-NaOH (pH 8.0), 27.8 mM NaCl, 1.1 mM DTT and 50% glycerol. […]
Absorbance Kinetic Assay (20 nM CDK7/Cyclin H/MAT-1 Complex)
CDK7 complex catalyzes the ATP-dependent phosphorylation of a peptide substrate CDK7/9-tide that is derived from RNA Pol II to produce phosphorylated peptide and ADP. The kinase reaction product ADP was converted to lactate and NAD^+ in the presence of phosphoenol pyruvate (PEP), NADH and coupling enzymes lactate dehydrogenase (LDH) and pyruvate kinase (PK). CDK7 complex catalytic activity was measured by following the absorbance intensity continuously at 340 nm that corresponds with the depletion of NADH.
Absorbance at 340 nm was followed kinetically at an interval of 2 minutes for 8 hours.
The assay was carried out with 100 μl reaction volume per well in a 384-well plate that was pre-spotted nanoliter volume of compounds by LabCyte Echo 555. Compound dilution plates were made by 2-fold (could vary upon necessity) dilution in DMSO for 11 concentrations plus a DMSO control of uninhibited reaction. 2× substrate and coupling reagent mixture was added to the assay plate followed by an addition of an equal volume of 40 nM CDK7/Cyclin H/MAT-1 complex. After mixing, assay plates were spun at 2000 rpm for 3 minutes and then transferred to the plate reader for data collection.
For reversible inhibitors, the absorbance reaction progress curves were linear. The steady-state rate was derived from the slope of the linear curves. The following equation is applied to determine percent inhibition.
[formula] • νo=max rate (uninhibited rate) • νi=inhibited rate
The IC50 value is calculated by the following equation:
[formula] where νo is the rate in the absence of inhibitor, νmin is the rate at highest inhibitor concentration, and h is the Hill coefficient. Flint Assay (5 nM CDK7/Cyclin H/MAT-1 Complex)

[2] = test system: RNA polymerase II Serine 5 phosphorylation (Rpb1 CTD), downstream substrate of CDK7; assay: Imaging-based cellular RNA PolII Ser5 phosphorylation assay in A549 cells; type: cell-based, human; conditions: Homo sapiens, A549, 3 h, challenged with compound for 3 hours, read-out: pRNA polII Ser5 (A549) pIC50 (converted)
From the text: Dosing curves were fitted using the following equation to obtain IC50: Y=Bottom+(Top−Bottom)/(1+10^((log IC50−X)*Hill slope)) where X=log10 of the compound concentration; top and bottom can be defined by PC and NC respectively. Imaging-Based Cellular RNA PolII Ser5 Phosphorylation Assay
To evaluate inhibition of CDK7 kinase activity, a 384-well automated imaging assay was used. This assay detects Serine 5 phosphorylation on a unique heptapeptide sequence in the C-terminal domain of Rpb1 subunit of RNA polymerase II, the downstream substrate of CDK7. This heptapeptide sequence is repeated up to 52 times in the CTD of Rpb1.
A549 adenocarcinoma human alveolar basal epithelial cells (ATCC, CCL-185), rabbit Phospho-Rpb1 CTD (Ser5) antibody (D9N51 (Cell Signaling Technology)), DMEM (Sigma), Fetal Bovine Serum (Biowest), L-glutamine (Sigma), Penicillin/Streptomycin (Life Technologies), Sodium Pyruvate (Sigma), Hepes (Sigma), poly-D-lysine coated μclear 384 black plates (Greiner), formaldehyde (PolySciences), D-PBS (Sigma), Methanol (Sigma), Alexa Fluor 488 goat anti rabbit IgG secondary antibody (Life Technologies), HCS CellMask™ Deep Red stain (Life Technologies), Hoechst 33258 (Invitrogen).
RNA Polymerase II Serine 5 phosphorylation was detected using a specific rabbit Phospho-Rpb1 CTD (Ser5) antibody. A549 adenocarcinoma human alveolar basal epithelial cells were seeded in 20 μl medium (DMEM supplemented with 1% Fetal Bovine Serum (heat inactivated 30′ 56° C.), 2 mM L-glutamine, 50 U/ml penicillin 50 μg/ml streptomycin, 1 mM sodium pyruvate and 50 mM hepes) at 1000 cells/well and cultured in poly-D-lysine coated μclear 384 black plates for 20 hours at 37° C. and 5% CO2.
After incubation cells were challenged with compound for 3 hours at 37° C. and 5% CO2. DMSO was used as high control and as low control 10 μM of LDC4297 reference compound was used. 40 nl of test compounds and controls were spotted in cell plates using Echo Liquid Handler (Echo 550, Labcyte). Incubation was followed by 20 minutes fixation with 20 μl 10% formaldehyde at room temperature. Medium/formaldehyde solution was removed, plates were washed 3 times with 30 μl D-PBS (w/o Ca^2+ and Ma^2+) and permeabilization was done by adding 20 μl ice cold methanol for 20 minutes. Cells were washed again 3 times with 30 μl D-PBS and 20 μl blocking buffer (25 ml fetal bovine serum in 500 ml D-PBS) was added for 1 hour.
After removing blocking buffer 20 μl 1/1000 primary antibody rabbit. Phospho-Rpb1 CTD (Ser5) antibody was added which binds to the phosphorylated Serine5 of the heptapeptide sequences in the CTD of Rpb1. Primary antibody was removed, and plates were washed 3 times with 30 μl D-PBS followed by addition of 20 μl 1/2000 Alexa Fluor 488 goat anti rabbit IgG secondary antibody for final detection of Phospho-Rpb1 CTD (Ser5) together with 1/5000 HCS CellMask™ Deep Red stain for membrane staining and 1/5000 Hoechst 33258 for nucleus staining. Last, plates were washed 2 times with 30 μl D-PBS and wells were filled with 40 μL D-PBS, plates were sealed (Thermowell sealing tape) and stored at 4° C. until reading. Plates were read with Opera Phenix (Perkin Elmer) with 10× air objective. Data were calculated and analyzed in Phaedra.
IC50 values were calculated using the following formula:
Average value of all HC's and all LC's are used for normalizations. % Effect=100−(sample−LC)/(HC−LC)×100% Control=(sample/HC)×100
A best-fit curve is fitted by a minimum sum of squares method to the plot of % Control vs. compound concentration. From this an IC50 value can be obtained. An estimate of the slope of the plot in terms of the Hill coefficient is also obtained.

T1 sequence (P50613 whole entry, the tested form may be a part): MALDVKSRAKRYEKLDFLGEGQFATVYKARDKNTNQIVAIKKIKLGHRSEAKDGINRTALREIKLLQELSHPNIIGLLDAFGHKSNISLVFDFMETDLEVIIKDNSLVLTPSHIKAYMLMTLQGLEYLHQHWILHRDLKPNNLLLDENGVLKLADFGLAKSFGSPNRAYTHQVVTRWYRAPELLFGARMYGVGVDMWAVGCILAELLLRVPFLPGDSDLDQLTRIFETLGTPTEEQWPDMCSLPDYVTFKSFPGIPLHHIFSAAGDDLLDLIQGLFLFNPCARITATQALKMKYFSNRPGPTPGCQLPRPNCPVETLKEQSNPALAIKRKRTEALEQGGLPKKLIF
T1 sequence (P51946 whole entry partner, the tested form may be a part): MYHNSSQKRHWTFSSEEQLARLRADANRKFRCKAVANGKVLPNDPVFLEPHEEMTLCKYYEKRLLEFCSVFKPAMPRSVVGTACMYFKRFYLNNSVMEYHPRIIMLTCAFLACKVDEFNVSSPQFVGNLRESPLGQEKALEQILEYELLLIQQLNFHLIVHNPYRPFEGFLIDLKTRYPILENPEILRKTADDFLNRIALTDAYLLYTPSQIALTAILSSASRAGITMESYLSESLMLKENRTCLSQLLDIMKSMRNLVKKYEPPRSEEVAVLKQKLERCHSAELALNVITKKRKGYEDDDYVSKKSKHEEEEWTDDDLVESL
T1 sequence (P51948 whole entry partner, the tested form may be a part): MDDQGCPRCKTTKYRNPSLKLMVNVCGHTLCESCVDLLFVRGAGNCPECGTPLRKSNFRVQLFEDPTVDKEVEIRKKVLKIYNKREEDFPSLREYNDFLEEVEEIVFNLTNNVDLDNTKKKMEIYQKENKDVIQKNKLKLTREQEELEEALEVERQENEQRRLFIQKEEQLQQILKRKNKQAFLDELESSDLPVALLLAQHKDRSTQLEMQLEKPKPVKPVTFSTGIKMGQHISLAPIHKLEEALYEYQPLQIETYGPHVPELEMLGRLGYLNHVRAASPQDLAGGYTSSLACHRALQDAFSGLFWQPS

Compound | IC50 [1] [nM] | IC50 [2] [nM] | CDK7 (20 nM) pIC50 [1]
CC[C@@H]1Cc2cnc(NC3CCOCC3)nc2CN1C(=O)[C@H]1CCN(C)C[C@@H]1c1ccccc1 (relative stereo) [Compound 185] | 42.7 | 724 | 
CC[C@H]1Cc2cnc(NC3CCOCC3)nc2CN1C(=O)[C@H]1CCN(C)C[C@@H]1c1ccccc1 (relative stereo) [Compound 186] | > 10000 | > 10000 | 
C[C@H]1CN(C(=O)[C@H]2CCN(C)C[C@@H]2c2ccccc2)Cc2nc(NC3CCOCC3)ncc21 (relative stereo) [Compound 187] | > 10000 | > 10000 | 
C[C@@H]1Cc2cnc(NCc3ccn(C)n3)nc2[C@@H](C)N1C(=O)[C@H]1CCN(C)C[C@@H]1c1ccccc1 (relative stereo) [Compound 197] | 776 | 2820 | 
Cc1cccc([C@@H]2CN(C)CC[C@H]2C(=O)N2Cc3nc(Nc4cnn(C)c4)ncc3[C@@H]3C[C@@H]32)c1 (relative stereo) [Compound 202] | 2340 | 6920 | 
C[C@@H]1Cc2cnc(NC3CCOCC3)nc2CN1C(=O)[C@H]1CCN(C)C[C@@H]1c1ccc(F)cc1 (single isomer, unassigned) [Compound 92b] |  | ~67.6 | 7.92
C[C@@H]1Cc2cnc(NC3CCOCC3)nc2CN1C(=O)[C@H]1CCN(C2CC2)C[C@@H]1c1ccccc1 (single isomer, unassigned) [Compound 161] |  | > 10000 | 6.74
CC(C)N1CC[C@H](C(=O)N2Cc3nc(NC4CCOCC4)ncc3C[C@H]2C)[C@@H](c2cccc(F)c2)C1 (single isomer, unassigned) [Compound 163] |  | 162 | 6.83
CC(C)N1CC[C@@H](C(=O)N2Cc3nc(NC4CCOCC4)ncc3C[C@H]2C)[C@H](c2cccc(F)c2)C1 (single isomer, unassigned) [Compound 164] |  | 4070 | 6.06
CC(C)N1CC[C@@H](C(=O)N2Cc3nc(NC4CCOCC4)ncc3C[C@H]2C)[C@H](c2ccc(Cl)c(F)c2)C1 (single isomer, unassigned) [Compound 165] |  | 3240 | 6.10
C[C@@H]1Cc2cnc(NC3CCOCC3)nc2[C@@H](C)N1C(=O)[C@H]1CCN(C)C[C@@H]1c1ccccc1 (single isomer, unassigned) [Compound 195a] | 4680 | > 10000 | 
CO[C@]1(C)CC[C@H](Nc2ncc3c(n2)CN(C(=O)[C@H]2CCN(C)C[C@@H]2c2ccccc2)[C@H](C)C3)CC1 [Compound 11] | 13.8 | 1350 | 
C[C@@H]1Cc2cnc(N[C@H]3CC[C@@H](C)CC3)nc2CN1C(=O)[C@H]1CCN(C)C[C@@H]1c1ccccc1 [Compound 14] |  | 479 | 7.89
C[C@@H]1Cc2cnc(N[C@H](C)c3ccccn3)nc2CN1C(=O)[C@H]1CCN(C)C[C@@H]1c1ccccc1 [Compound 21] |  | 302 | 7.97
C[C@H](Nc1ncc2c(n1)CN(C(=O)[C@H]1CCN(C)C[C@@H]1c1ccccc1)[C@H](C)C2)c1ccccc1 [Compound 23] |  | 302 | 7.97
C[C@@H]1Cc2cnc(NC3CC(C)(C)OC(C)(C)C3)nc2CN1C(=O)[C@H]1CCN(C)C[C@@H]1c1ccccc1 [Compound 24] |  | 126 | 7.96
C[C@@H]1Cc2cnc(NC3CCN(C4COC4)CC3)nc2CN1C(=O)[C@H]1CCN(C)C[C@@H]1c1ccccc1 [Compound 25] |  | 776 | 7.46
C[C@@H]1Cc2cnc(NCC3CCOC3)nc2CN1C(=O)[C@H]1CCN(C)C[C@@H]1c1ccccc1 (stereo partly shown) [Compound 26] |  | 302 | 7.85
Cc1ccc(CNc2ncc3c(n2)CN(C(=O)[C@H]2CCN(C)C[C@@H]2c2ccccc2)[C@H](C)C3)cn1 [Compound 27] |  | 2090 | 7.50
C[C@@H]1Cc2cnc(NCC(=O)N3CCCCC3)nc2CN1C(=O)[C@H]1CCN(C)C[C@@H]1c1ccccc1 [Compound 28] |  | > 10000 | 6.59

— US12679839B2, “Cyclin-dependent kinase 7 (CDK7) non-covalent inhibitors” (JANSSEN PHARMACEUTICA NV, priority 2020, dated 2026)
